Reference: ChEMBL document CHEMBL1201862, “PubChem BioAssay data set” (2004)
Activity calls are given as the source filed them.

Tests used:
[1] = system: Streptococcus sp. 'group A'; test: Streptococcus pyogenes SK(-)GAS viability under kanamycin – luminescence, BacTiterGlo, confirmation, counter-screen for streptokinase expression inhibitor project, dose response (AID 1900); assay type: functional, organism-based
[2] = system: Streptococcus; test: GAS UMAA2166 growth inhibition – luminescence, BacTiterGlo, counter-screen for streptokinase expression inhibitor project, dose response (AID 1915); assay type: functional, organism-based;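 note: potency for reduction of bacterial viability or growth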
[3] = Luminescence Cell-Based Dose Retest to Confirm Inhibitors of Cancer Stem Cells. [Related pubchem assays (depositor defined):AID2717, AID2721]; assay type: functional; settings: Homo sapiens
[4] = target: T1, Replicative DNA helicase DnaB (Mycobacterium tuberculosis, UniProt P9WMR3); test: DnaB intein splicing inhibitors, dose response, biochemical, cell-free fluorescence (AID 449749); assay type: functional
T1 sequence (P9WMR3 whole entry): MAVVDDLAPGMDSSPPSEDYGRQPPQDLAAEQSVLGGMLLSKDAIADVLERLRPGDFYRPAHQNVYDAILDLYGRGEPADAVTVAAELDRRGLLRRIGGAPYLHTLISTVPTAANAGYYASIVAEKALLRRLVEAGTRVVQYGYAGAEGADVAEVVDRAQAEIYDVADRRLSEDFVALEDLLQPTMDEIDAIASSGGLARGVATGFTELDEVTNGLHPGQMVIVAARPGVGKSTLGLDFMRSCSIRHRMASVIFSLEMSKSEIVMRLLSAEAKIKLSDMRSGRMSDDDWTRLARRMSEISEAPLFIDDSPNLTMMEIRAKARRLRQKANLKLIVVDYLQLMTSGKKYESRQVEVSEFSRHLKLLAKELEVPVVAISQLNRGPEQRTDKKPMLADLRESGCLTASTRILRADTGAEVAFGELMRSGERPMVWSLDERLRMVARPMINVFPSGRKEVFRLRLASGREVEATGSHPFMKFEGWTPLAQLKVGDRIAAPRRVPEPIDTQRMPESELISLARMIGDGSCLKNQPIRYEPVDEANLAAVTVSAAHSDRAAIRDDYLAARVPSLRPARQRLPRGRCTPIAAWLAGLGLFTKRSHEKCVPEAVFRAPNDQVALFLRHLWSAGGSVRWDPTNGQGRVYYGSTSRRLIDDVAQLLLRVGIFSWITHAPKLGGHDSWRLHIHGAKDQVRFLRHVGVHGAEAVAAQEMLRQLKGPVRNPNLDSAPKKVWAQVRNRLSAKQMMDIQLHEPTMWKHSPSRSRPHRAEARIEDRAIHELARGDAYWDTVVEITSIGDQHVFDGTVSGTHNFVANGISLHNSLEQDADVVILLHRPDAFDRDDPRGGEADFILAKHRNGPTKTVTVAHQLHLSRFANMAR

[5] = target: T2, Protein RecA (Mycobacterium tuberculosis, UniProt P9WHJ3); test: Fluorescence Cell-Free Homogeneous Dose Retest to Identify Inhibitors of RecA-Intein Splicing Activity. [Related pubchem assays (depositor defined):AID2097, AID2223, AID489010, AID492950]; assay type: functional
T2 sequence (P9WHJ3 whole entry): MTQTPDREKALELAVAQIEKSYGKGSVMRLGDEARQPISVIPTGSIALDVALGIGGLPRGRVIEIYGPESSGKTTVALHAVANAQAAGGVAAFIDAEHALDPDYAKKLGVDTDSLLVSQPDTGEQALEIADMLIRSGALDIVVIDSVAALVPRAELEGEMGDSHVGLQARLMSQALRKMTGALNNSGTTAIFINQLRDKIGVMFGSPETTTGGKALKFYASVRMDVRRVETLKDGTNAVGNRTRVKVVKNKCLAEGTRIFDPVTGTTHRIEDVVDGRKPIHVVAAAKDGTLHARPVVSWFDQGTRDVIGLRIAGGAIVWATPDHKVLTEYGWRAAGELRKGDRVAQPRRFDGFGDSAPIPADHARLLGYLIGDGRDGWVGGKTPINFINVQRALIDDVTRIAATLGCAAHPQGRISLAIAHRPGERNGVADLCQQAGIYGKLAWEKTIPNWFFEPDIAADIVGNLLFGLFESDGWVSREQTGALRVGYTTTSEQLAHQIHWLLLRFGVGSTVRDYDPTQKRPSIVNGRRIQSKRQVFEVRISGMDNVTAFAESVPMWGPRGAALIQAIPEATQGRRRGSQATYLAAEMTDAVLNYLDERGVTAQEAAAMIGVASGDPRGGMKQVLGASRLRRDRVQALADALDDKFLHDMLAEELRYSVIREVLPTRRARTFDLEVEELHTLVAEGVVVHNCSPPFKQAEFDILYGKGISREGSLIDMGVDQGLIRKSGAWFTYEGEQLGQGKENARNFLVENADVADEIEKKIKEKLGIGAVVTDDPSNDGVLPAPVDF

[6] = target: T3, Cytochrome P450 1A2 (Homo sapiens, UniProt P05177);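 note: PubChem cytochrome P450 panel assay, CYP1A2 panel member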
T3 sequence (P05177 whole entry): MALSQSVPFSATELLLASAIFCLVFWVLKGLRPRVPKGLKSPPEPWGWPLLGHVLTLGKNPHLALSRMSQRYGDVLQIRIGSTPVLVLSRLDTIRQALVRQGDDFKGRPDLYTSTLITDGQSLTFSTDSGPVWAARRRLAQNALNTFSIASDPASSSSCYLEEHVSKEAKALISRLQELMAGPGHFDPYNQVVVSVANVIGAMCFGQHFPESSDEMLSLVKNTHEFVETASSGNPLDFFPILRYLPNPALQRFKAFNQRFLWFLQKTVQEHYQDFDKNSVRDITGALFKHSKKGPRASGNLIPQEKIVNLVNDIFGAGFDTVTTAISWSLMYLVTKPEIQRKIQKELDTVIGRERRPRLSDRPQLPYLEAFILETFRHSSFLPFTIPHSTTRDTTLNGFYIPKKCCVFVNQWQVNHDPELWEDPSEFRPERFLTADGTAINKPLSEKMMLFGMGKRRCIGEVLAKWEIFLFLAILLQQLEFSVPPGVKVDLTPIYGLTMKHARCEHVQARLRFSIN

[7] = target: Cytochrome P450 2C9 (Homo sapiens, UniProt P11712)
[8] = target: Cytochrome P450 2C19 (Homo sapiens, UniProt P33261); test: Cytochrome panel assay with activity outcomes. Panel member name: p450-cyp2c19 Compounds with AC50 equal or less than 10 uM are considered active; assay type: functional
[9] = target: T4, Corticotropin-releasing factor receptor 2/Corticotropin-releasing factor-binding protein (Homo sapiens, UniProt P24387+Q13324); test: activators of CRF receptor 2 with binding protein – uHTS hits, confirmation (AID 602473); assay type: functional; settings: read-out: EC50_Mean
T4 sequence (Q13324 whole entry): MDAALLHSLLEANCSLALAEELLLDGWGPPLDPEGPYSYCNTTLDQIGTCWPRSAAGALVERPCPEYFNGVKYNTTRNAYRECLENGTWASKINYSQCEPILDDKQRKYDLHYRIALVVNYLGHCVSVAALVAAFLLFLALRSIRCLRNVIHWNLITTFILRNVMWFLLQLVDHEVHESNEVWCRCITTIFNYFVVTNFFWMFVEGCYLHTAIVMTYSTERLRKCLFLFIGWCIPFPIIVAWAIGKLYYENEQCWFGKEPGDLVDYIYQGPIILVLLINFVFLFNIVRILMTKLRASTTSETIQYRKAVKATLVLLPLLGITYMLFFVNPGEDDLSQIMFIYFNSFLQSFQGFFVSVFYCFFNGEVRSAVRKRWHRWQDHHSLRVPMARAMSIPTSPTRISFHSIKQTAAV
T4 sequence (P24387 whole entry): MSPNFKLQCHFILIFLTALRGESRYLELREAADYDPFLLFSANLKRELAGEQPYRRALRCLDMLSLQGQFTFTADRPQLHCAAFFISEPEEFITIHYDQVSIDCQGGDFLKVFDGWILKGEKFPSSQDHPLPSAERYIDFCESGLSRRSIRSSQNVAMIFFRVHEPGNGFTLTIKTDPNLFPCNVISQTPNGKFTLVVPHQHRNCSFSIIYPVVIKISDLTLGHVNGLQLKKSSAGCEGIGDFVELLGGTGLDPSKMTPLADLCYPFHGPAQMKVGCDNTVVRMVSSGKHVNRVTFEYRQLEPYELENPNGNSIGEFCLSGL

[10] = target: Cytochrome P450 2D6 (Homo sapiens, UniProt P10635);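 note: CYP2D6 member of a cytochrome P450 panel assay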
[11] = Trypanosoma cruzi growth suppression in host cells – NIH3T3 host cells, beta-gal luminescence, confirmation (AID 2044); assay type: functional, cell-based;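 note: intracellular parasites grown in NIH/3T3 mouse fibroblasts as host cells; luminescent beta-galactosidase reporter signal from transgenic T. cruzi replicating inside host cells; inhibitors lower the luminescence signal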
[12] = NIH3T3 cell viability loss – ATP luminescence, mouse fibroblasts, counter-screen, dose response (AID 2010); assay type: functional, cell-based;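 note: cells exposed to compound for about 90 hours before reading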

Chain of Cytochrome P450 2C19 (P33261 whole entry): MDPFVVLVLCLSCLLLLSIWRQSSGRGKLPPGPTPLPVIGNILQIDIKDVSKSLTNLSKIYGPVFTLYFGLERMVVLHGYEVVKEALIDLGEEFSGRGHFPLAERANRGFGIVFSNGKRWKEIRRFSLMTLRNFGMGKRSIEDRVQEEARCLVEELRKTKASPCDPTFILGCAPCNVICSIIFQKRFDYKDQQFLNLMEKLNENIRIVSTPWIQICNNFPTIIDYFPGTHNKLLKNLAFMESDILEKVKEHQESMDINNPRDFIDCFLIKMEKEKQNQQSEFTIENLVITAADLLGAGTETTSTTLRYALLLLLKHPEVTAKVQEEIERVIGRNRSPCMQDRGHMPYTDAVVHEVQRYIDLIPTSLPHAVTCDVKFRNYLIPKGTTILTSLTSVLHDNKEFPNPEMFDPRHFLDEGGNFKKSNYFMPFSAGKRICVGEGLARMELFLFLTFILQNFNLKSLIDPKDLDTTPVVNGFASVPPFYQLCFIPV
Chain of Cytochrome P450 2C9 (P11712 whole entry): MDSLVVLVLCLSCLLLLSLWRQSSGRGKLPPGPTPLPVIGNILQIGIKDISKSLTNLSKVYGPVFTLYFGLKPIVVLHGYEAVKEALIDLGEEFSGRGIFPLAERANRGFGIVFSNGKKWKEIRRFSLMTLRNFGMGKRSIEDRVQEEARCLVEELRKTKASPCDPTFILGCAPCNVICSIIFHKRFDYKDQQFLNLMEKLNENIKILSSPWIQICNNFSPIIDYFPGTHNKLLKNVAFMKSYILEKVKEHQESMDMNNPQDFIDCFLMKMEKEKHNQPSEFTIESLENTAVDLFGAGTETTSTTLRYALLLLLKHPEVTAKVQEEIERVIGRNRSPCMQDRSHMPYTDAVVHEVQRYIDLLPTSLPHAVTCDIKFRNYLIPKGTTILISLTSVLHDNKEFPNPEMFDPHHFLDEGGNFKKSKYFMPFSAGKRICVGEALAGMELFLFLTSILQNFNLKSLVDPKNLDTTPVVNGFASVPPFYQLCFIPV
Chain of Cytochrome P450 2D6 (P10635 whole entry): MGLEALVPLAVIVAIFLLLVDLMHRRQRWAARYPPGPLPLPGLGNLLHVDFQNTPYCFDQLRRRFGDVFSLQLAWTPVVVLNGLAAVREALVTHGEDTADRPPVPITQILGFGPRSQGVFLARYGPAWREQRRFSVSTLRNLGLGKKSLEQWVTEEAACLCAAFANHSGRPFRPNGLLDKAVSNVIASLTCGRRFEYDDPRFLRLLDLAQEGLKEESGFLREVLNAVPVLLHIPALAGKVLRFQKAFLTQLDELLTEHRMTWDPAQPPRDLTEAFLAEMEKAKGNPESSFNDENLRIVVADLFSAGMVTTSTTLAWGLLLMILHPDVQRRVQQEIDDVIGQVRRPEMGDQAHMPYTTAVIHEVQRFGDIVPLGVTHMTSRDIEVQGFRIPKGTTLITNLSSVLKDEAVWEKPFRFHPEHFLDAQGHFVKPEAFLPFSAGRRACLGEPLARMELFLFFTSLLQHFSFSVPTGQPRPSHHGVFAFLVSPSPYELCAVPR

CCCC1CC(C(=O)NC(C(C)Cl)C2OC(SC)C(O)C(O)C2O)N(C)C1 (stereo not given)
EC50 [1]: < 0.06 µM (active)
EC50 [2]: < 0.06 µM (active)

FC(F)Oc1ccc(-c2csc(NNC3=NCCCCC3)n2)cc1
AC50 [3]: 1.77 µM (active)

O=C1CC/[N+](=C\c2ccccc2)[N-]1
AC50 [4]: 19.4 µM (active)
EC50 [5]: 4.58 µM (active)

O=C(c1ccncc1)N1CCC2(CC1)CCN(c1cccc(-c3ccccc3)c1)CC2
AC50 [6]: 20 µM (inconclusive)
AC50 [7]: 12.6 µM (inconclusive)

CCn1c(=O)c(C(=O)NCCc2ccccc2)c(O)c2ccccc21
AC50 [3]: 6.91 µM (active)

COc1ccc(NC(=O)c2ccc(COc3ccccc3Br)o2)cc1OC
AC50 [3]: 1.69 µM (active)

Cc1cccc(C(=O)OCC(=O)Nc2nnc(-c3ccccc3)o2)c1O
EC50 [1]: 3.11 µM (active)
EC50 [2]: 4.74 µM (active)

COC(=O)Cc1n[nH]c2c1C(c1c[nH]c3ccccc13)C(C#N)=C(N)O2 (stereo not given)
AC50 [4]: > 380 µM (inactive)
EC50 [5]: > 380 µM (inconclusive)

O=C1c2cc(Br)ccc2N(Cc2ccc(Br)cc2)S(=O)(=O)C1c1cc(Cl)c(Cl)cc1[N+](=O)[O-] (stereo not given)
AC50 [3]: 1.06 µM (active)

COc1ccc(NCc2nnc(SCc3ccccc3)n2-c2ccc(OC)cc2)cc1
AC50 [6]: 17.8 µM (inconclusive)
AC50 [7]: 12.6 µM (inconclusive)

COc1ccccc1CNc1cc(-c2cccnc2)ncn1
AC50 ([8]; read-out: AC50): 15.8 µM (inconclusive)

CC1(c2ccc(OC(F)F)cc2)NC(=O)N(CC(=O)Nc2cccc(F)c2)C1=O (stereo not given)
EC50 [9]: 4.52 µM (active)

CCOC(=O)c1nnn(-c2nonc2-n2cccc2)c1CCl
AC50 [4]: 5.35 µM (active)
EC50 [5]: 1.42 µM (active)

CC(=O)OCC1=C(C(=O)O)N2C(=O)C(NC(=O)C(C)Cn3cc(Cl)cn3)C2SC1 (stereo not given)
EC50 [1]: 1.39 µM (active)
EC50 [2]: 1.27 µM (active)

O=S(=O)(NC1CC(NS(=O)(=O)OCC(Cl)(Cl)Cl)C2CCCCC12)OCC(Cl)(Cl)Cl (stereo not given)
AC50 [3]: 1.31 µM (active)

O=C(c1cnccn1)N1CCC2(CCCN(c3cccc(-c4ccccc4)c3)C2)CC1
AC50 ([8]; read-out: AC50): 7.94 µM (inconclusive)

c1ccc2c(c1)ncn2Cc1nnc2sc(-c3ccc4c(c3)OCO4)nn12
AC50 ([8]; read-out: AC50): 15.8 µM (inconclusive)
AC50 [10]: 15.8 µM (inconclusive)
AC50 [6]: 1.12 µM (inconclusive)

COc1ccc(-n2ncc3c(NCC4CCCO4)ncnc32)cc1 (stereo not given)
AC50 ([8]; read-out: AC50): 8.91 µM (inconclusive)
AC50 [7]: 12.6 µM (inconclusive)

Cc1ccccc1CS(=O)(=O)c1snnc1C
AC50 [4]: > 380 µM (inactive)
EC50 [5]: > 380 µM (inactive)

COC(=O)c1c(-c2ccc(OC)cc2)oc2ccc(-c3cc(OC)c(OC)c(OC)c3)cc12
AC50 [3]: 5.85 µM (active)

Cc1[nH]c2ccc(F)cc2c1CCN(Cc1cccnc1)C(S)=Nc1ccc(F)cc1
EC50 [11]: 0.705 µM (active)
EC50 [12]: > 30 µM (not active)
AC50 [4]: 17.2 µM (active)
EC50 [5]: 93.4 µM (active)

CN(C)C(=O)c1ccc(-c2nc(NCc3ccccc3)c3ccccc3n2)cc1
AC50 ([8]; read-out: AC50): 25.1 µM (inconclusive)
AC50 [10]: 39.8 µM (inconclusive)

Fc1ccc(-c2ccnc3nc(N4CCOCC4)nn23)cc1
AC50 ([8]; read-out: AC50): 3.55 µM (inconclusive)

Cn1c(=O)c(C(=O)CN2CCOCC2)c(N)n(Cc2ccccc2)c1=O
AC50 ([8]; read-out: AC50): 39.8 µM (inconclusive)
AC50 [10]: 7.94 µM (inconclusive)

Cc1noc(C)c1-c1cc(N(C)Cc2ccco2)ncn1
AC50 ([8]; read-out: AC50): 15.8 µM (inconclusive)

O=c1[nH]cc(NCCc2ccccc2)c(=O)[nH]1
AC50 [4]: > 380 µM (inconclusive)
EC50 [5]: 10.1 µM (active)

CCCCOc1ccc(C2C3CN(C(=O)OCC)CC=C3C(C#N)=C(N)C2(C#N)C#N)cc1OC (stereo not given)
AC50 [4]: > 380 µM (inactive)
EC50 [5]: 29.8 µM (active)

CN1CCN(C(=O)C(C(=O)c2ccc(F)cc2)n2ccccc2=O)CC1 (stereo not given)
AC50 [8]: inconclusive

CCOc1ccccc1C1C(C(N)=O)=C(C)Nc2nc(-c3ccc(OC)cc3)nn21 (stereo not given)
AC50 [10]: 1 µM (inconclusive)
AC50 [6]: 15.8 µM (inconclusive)
AC50 [7]: 15.8 µM (inconclusive)

C/C=C(/C)C(=O)OC1CC(C)(C)C[C@H]2C3=CC[C@@H]4[C@@]5(C)CCC(O[C@@H]6O[C@@H](C(=O)O)[C@@H](O)C(O[C@@H]7OC[C@H](O)[C@@H](O)[C@@H]7O[C@@H]7OC(CO)C(O)[C@@H](O)[C@@H]7O)C6O[C@@H]6OC(CO)C(O)C(O)C6O)[C@@](C)(CO)[C@@H]5CC[C@]4(C)[C@]3(C)CC(O)[C@@]12CO (stereo not given in full)
EC50 [9]: 5.49 µM (active)

CCOC(=O)Cn1cc(/C=N/NC(=O)CC#N)c2ccccc21
AC50 [4]: 61.1 µM (active)
EC50 [5]: 6.38 µM (active)

COc1cc(/C=N/NC(=O)c2cccnc2)ccc1OC(=O)c1ccco1
AC50 ([8]; read-out: AC50): 8.91 µM (inconclusive)
AC50 [7]: 28.2 µM (inconclusive)
